From paper PMC4980415 (Psychopharmacology, 2016)
Where a name gives a salt, the structure may show the parent alone. Read-outs that look alike come from different tables or passages of the source.

Columns and labels:
[1] = tested on: memory retrieval in male Wistar rats; experiment: Novel object recognition (NOR): retrieval, drug 2 h before T2; type: in vivo, rat; settings: for Exploration time e1 (T1) / Exploration time e2 (T2): 2 h before T2, 24 h interval
Procedure: (§1) The drug was administered, per os (po), by gavage to rats in a volume of 2 ml/kg body weight. Oral dosing solutions were prepared fresh daily. […] The pH of the dosing solution was adjusted to ~pH 5.5 by dropwise addition of 0.1 N NaOH in saline and volume adjusted by addition of saline in preparation for intraperitoneal (ip) dosing. […] Control treatments were always the vehicle solutions of the corresponding drugs.
(§2) The object recognition test was performed as described elsewhere (Ennaceur and Delacour [1988]; Akkerman et al. 2014). The apparatus consisted of a circular arena, 83 cm in diameter. Half of the 40-cm-high wall was made of gray polyvinyl chloride, the other half of transparent polyvinyl chloride. The light intensity was equal in the different parts of the apparatus, as fluorescent red tubes provided a constant illumination of about 20 lx on the floor of the apparatus. Two objects were placed in a symmetrical position at about 10 cm from the gray wall. Four different sets of objects were used. The different objects were (1) a cone consisting of a gray polyvinyl chloride base (maximal diameter 18 cm) with a collar on top made of brass (total height 16 cm), (2) a standard 1 L transparent glass bottle (diameter 10 cm, height 22 cm) filled with water, (3) a large metal cube (10.0 × 5.0 × 7.5 cm) with two holes (diameter 1.9 cm), and (4) a large aluminum cube with a tapering top (13.0 × 8.0 × 8.0 cm). The objects used in this study were carefully selected to be “novelty neutral,” that is to say the rats have no innate preference for one over the other. In all cases, objects were of sufficient size and weight that rats could not move the objects.
(§3) A testing session consisted of two trials. The duration of each trial was 3 min. During the first trial (T1), the apparatus contained two identical objects (samples). Rats were placed in the apparatus facing the wall at the middle of the front (transparent) segment. After the first exploration period, the rat was put back in its home cage. Subsequently, after a 24-h delay interval, the rat was put in the apparatus for the second trial (T2). The times spent in exploring each object during T1 and T2 were recorded manually using a personal computer.
(§4) Exploration was defined as follows: directing the nose to the object at a distance of no more than 2 cm and/or touching the object with the nose. Sitting on the object was not considered as exploratory behavior. In order to avoid the presence of olfactory cues, the objects were always thoroughly cleaned with a 70 % ethanol solution before each trial. All combinations and locations of objects were used in a balanced manner to reduce potential biases due to preferences for particular locations or objects.
(§5) During the first 2 weeks after animal arrival, the animals were handled daily. They were then adapted to the procedure over the period of 2 days by allowing them to explore the apparatus (without any objects) for 3 min twice each day. […] After this, the rats were assigned to treatment conditions in a balanced manner, thereby insuring an equal distribution of object combinations among the treatment conditions. […] In all experiments, a 24-h inter-trial interval was used. In all cases, the experimenter was unaware of the treatment conditions that were being tested.
(§6) The basic measure recorded was the time spent by each rat exploring an object during T1 and T2. The time spent in exploring the two identical samples was represented by “a1” and “a2.” The time spent in T2 in exploring the sample and new object was represented by “a” and “b,” respectively. The following variables were calculated: e1 = a1 + a2, e2 = a + b, and d2 = (b − a) / e2. The e1 and e2 are measures of the total exploration time of both objects during T1 and T2, respectively. Differences in exploration times between treatment conditions were analyzed using a t test or one-way ANOVA. […]

[2] = Pharmacokinetics of ITI-214 in rats; type: in vivo; settings: rat, oral; for concentration at 2 h: 3 mg/kg
From the text: Standard methods of tissue extraction were used.

[3] = tested on: 70 key receptor, enzyme, and ion channel proteins; experiment: 70-target diversity panel (SEP II), whole panel; type: binding; settings: 10 μM, 70-target panel
B2 (H), bradykinin = biological target: T1, B2 (H), bradykinin (Homo sapiens, UniProt P30411); experiment: Off-target binding, General SEP II panel; settings: 10 μM ITI-214, mean of n = 2
T1 construct: Caliper Life Sciences (contract screen)
T1 sequence (P30411 1-391): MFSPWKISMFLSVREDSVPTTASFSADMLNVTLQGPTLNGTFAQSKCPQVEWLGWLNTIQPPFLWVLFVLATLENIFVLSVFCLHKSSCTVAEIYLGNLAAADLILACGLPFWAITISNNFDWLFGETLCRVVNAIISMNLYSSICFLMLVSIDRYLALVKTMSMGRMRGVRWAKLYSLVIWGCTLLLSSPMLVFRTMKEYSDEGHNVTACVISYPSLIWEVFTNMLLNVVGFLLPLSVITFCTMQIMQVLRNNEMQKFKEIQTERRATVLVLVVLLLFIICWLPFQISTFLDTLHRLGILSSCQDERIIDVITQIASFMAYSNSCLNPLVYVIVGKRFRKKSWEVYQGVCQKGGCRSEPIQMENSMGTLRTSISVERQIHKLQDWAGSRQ

[4] = tested on: late memory consolidation in male Wistar rats; experiment: Novel object recognition (NOR): late consolidation, drug 3 h after T1; type: in vivo, rat; settings: for Exploration time e1 (T1) / Exploration time e2 (T2): 3 h after T1
Procedure: as §1, §2, §3, §4, §5, §6

[5] = tested on: Alpha 1 (non-selective), adrenergic; experiment: Off-target binding, General SEP II panel; settings: 10 μM ITI-214, mean of n = 2
[6] = biological target: T2, Potassium channel I[Kr], (hERG) (Homo sapiens, UniProt Q12809); experiment: Off-target binding, General SEP II panel; settings: 10 μM ITI-214, mean of n = 2
T2 construct: Caliper Life Sciences (contract screen)

[7] = tested on: memory acquisition and retrieval in male Wistar rats; experiment: Novel object recognition (NOR): suboptimal doses 2 h before T1 and T2; type: in vivo, rat
Procedure: as §1
The object recognition test was performed as described elsewhere (Ennaceur and Delacour [1988]; Akkerman et al. 2014). The apparatus consisted of a circular arena, 83 cm in diameter. Half of the 40-cm-high wall was made of gray polyvinyl chloride, the other half of transparent polyvinyl chloride. The light intensity was equal in the different parts of the apparatus, as fluorescent red tubes provided a constant illumination of about 20 lx on the floor of the apparatus. Two objects were placed in a symmetrical position at about 10 cm from the gray wall. Four different sets of objects were used. The different objects were (1) a cone consisting of a gray polyvinyl chloride base (maximal diameter 18 cm) with a collar on top made of brass (total height 16 cm), (2) a standard 1 L transparent glass bottle (diameter 10 cm, height 22 cm) filled with water, (3) a large metal cube (10.0 × 5.0 × 7.5 cm) with two holes (diameter 1.9 cm), and (4) a large aluminum cube with a tapering top (13.0 × 8.0 × 8.0 cm). The objects used in this study were carefully selected to be “novelty neutral,” that is to say the rats have no innate preference for one over the other. […]
A testing session consisted of two trials. […] The times spent in exploring each object during T1 and T2 were recorded manually using a personal computer. […]
The basic measure recorded was the time spent by each rat exploring an object during T1 and T2. […] The following variables were calculated: e1 = a1 + a2, e2 = a + b, and d2 = (b − a) / e2. […] Differences in exploration times between treatment conditions were analyzed using a t test or one-way ANOVA. […]

[8] = biological target: T3, DA transporter (h), dopamine (Homo sapiens, UniProt Q01959); experiment: Off-target binding, General SEP II panel; settings: 10 μM ITI-214, mean of n = 2
T3 construct: Caliper Life Sciences (contract screen)

[9] = tested on: Na^+ channel (site 2), sodium channel; experiment: Off-target binding, General SEP II panel; settings: 10 μM ITI-214, mean of n = 2
NK1 (h), neurokinin = biological target: T4, NK1 (h), neurokinin (Homo sapiens, UniProt P25103); experiment: Off-target binding, General SEP II panel; settings: 10 μM ITI-214, mean of n = 2
T4 construct: Caliper Life Sciences (contract screen)

[10] = 0.3 mg/kg 2 h before T1 and 0.1 mg/kg 2 h before T2, po

T2 sequence (Q12809 whole entry): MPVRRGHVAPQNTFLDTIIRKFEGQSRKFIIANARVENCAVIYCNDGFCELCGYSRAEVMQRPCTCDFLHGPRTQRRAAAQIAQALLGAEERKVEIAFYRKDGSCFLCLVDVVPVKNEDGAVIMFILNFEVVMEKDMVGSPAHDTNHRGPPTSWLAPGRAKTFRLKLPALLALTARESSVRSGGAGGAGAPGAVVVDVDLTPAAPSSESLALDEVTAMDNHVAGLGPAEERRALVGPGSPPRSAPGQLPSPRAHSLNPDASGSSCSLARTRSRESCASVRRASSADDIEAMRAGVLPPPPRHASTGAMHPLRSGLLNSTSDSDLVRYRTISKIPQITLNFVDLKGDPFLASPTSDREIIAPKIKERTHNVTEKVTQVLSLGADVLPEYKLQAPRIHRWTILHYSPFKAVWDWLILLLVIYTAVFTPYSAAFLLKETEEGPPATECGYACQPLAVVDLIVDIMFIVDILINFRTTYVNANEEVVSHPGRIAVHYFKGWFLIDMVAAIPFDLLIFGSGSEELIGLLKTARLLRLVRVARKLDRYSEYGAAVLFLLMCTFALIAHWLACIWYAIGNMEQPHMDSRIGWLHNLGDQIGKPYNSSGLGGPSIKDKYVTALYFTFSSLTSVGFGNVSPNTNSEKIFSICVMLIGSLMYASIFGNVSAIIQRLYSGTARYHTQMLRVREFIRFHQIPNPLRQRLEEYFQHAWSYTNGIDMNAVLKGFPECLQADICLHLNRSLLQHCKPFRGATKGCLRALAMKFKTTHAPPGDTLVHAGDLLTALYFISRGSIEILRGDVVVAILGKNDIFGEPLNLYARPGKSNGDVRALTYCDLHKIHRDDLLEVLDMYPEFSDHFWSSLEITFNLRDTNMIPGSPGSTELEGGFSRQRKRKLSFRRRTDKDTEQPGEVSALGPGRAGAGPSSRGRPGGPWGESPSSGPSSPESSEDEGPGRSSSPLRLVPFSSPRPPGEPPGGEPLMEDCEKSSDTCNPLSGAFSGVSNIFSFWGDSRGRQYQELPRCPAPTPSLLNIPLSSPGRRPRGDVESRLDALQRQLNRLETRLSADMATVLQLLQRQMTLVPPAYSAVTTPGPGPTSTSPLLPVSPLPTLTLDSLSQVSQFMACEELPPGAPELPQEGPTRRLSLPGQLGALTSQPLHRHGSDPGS
T4 sequence (P25103 whole entry): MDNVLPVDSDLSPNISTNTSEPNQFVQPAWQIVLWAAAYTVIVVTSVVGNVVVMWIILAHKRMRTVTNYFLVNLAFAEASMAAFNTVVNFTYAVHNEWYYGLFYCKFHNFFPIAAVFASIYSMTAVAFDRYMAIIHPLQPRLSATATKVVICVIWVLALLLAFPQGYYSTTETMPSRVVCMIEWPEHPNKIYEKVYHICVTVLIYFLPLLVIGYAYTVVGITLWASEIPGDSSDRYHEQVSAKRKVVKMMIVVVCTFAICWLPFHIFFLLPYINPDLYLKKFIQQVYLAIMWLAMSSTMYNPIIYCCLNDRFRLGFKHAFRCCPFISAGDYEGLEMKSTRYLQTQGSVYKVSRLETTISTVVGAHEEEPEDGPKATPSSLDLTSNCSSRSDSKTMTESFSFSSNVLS
T3 sequence (Q01959 whole entry): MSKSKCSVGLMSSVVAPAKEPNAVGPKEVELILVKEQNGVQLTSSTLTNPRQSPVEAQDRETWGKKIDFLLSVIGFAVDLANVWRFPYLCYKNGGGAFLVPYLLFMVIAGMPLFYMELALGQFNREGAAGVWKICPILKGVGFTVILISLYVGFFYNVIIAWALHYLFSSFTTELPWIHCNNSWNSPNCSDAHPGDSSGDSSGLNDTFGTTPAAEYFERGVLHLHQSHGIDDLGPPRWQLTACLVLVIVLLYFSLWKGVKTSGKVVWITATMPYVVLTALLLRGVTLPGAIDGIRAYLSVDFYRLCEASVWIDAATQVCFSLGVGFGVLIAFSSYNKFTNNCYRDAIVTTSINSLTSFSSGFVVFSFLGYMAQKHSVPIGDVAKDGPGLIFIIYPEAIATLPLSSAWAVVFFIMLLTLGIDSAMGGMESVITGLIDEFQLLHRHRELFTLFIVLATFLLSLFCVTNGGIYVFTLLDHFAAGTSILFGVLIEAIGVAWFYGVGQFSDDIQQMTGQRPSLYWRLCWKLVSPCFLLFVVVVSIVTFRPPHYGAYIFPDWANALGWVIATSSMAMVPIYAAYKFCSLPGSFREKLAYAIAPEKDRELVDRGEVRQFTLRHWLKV

Structure (SMILES): CN1C(=O)c2c(nn(Cc3ccc(-c4cccc(F)n4)cc3)c2Nc2ccccc2)N2C1=N[C@@H]1CCC[C@@H]12 [ITI-214, (6aR,9aS)-2-(4-(6-fluoropyridin-2-yl)benzyl)-5-methyl-3-(phenylamino)-5,6a,7,8,9,9a-hexahydrocyclopenta-[4,5]imidazo[1,2-a]pyrazolo[4,3-e]pyrimidin-4-(2H)-one phosphate salt]
- Exploration time e1 (T1) ([1]; 0.1 mg/kg po): 29.32 (1.82) s
- Exploration time e2 (T2) ([1]; 0.1 mg/kg po): 28.78 (2.08) s
- Exploration time e1 (T1) ([1]; 0.3 mg/kg po): 28.83 (1.84) s
- Exploration time e2 (T2) ([1]; 0.3 mg/kg po): 29.31 (1.52) s
- Exploration time e1 (T1) ([1]; 1 mg/kg po): 26.81 (1.72) s
- Exploration time e2 (T2) ([1]; 1 mg/kg po): 33.64 (2.35) s
- Exploration time e1 (T1) ([1]; 3 mg/kg po): 27.20 (1.90) s
- Exploration time e2 (T2) ([1]; 3 mg/kg po): 28.60 (1.13) s
- Exploration time e1 (T1) ([1]; 10 mg/kg po): 30.59 (1.98) s
- Exploration time e2 (T2) ([1]; 10 mg/kg po): 30.52 (1.87) s
- full effective dose (d2 different from chance and from vehicle), retrieval ([1]; po 2 h before T2): 1 mg/kg
- effect on exploratory behavior during T1 or T2 ([1]; retrieval and combined sub-threshold dose experiments): no effect on exploratory behavior
- Tmax ([2]; brain): ~1.5 h
- concentration at 2 h ([2]; brain, plasma levels associated with optimal effects on acquisition, read-out: brain free fraction estimated): 0.12 nM
- concentration at 2 h ([2]; plasma, 2 h after drug administration, N = 12 rats, read-out: plasma level): 30.1 ± 13.4 ng/mL
- concentration at 2 h ([2]; plasma, 2 h after drug administration, read-out: free plasma concentration): 0.12 nM
- number of panel targets showing >50 % binding [3]: 4
- % Binding (B2 (H), bradykinin): 30.79%
- Exploration time e1 (T1) ([4]; 0.1 mg/kg po): 26.20 (1.95) s
- Exploration time e2 (T2) ([4]; 0.1 mg/kg po): 32.81 (2.24) s
- Exploration time e1 (T1) ([4]; 0.3 mg/kg po): 29.36 (3.22) s
- Exploration time e2 (T2) ([4]; 0.3 mg/kg po): 29.64 (2.15) s
- Exploration time e1 (T1) ([4]; 1 mg/kg po): 25.93 (1.53) s
- Exploration time e2 (T2) ([4]; 1 mg/kg po): 27.86 (2.43) s
- Exploration time e1 (T1) ([4]; 3 mg/kg po): 25.62 (1.89) s
- Exploration time e2 (T2) ([4]; 3 mg/kg po): 28.34 (2.95) s
- effect on exploratory behavior ([4]; early and late consolidation experiments): no effects on exploratory behavior
- full effective dose (d2 different from chance and from vehicle), late consolidation ([4]; po 3 h after T1): 1 mg/kg
- % Binding [5]: 40.90%
- % Binding [6]: 35.09%
- Exploration time e1 (T1) [7, 10]: 30.43 (2.16) s
- Exploration time e2 (T2) [7, 10]: 28.78 (1.26) s
- effect on discrimination behavior (d2), combined sub-effective doses ([7]; 0.3 mg/kg 2 h before T1 plus 0.1 mg/kg 2 h before T2, different from chance and vehicle, p < 0.001): full increase in discrimination behavior
- % Binding [8]: 58.70%
- % Binding [9]: 88.44%
- % Binding (NK1 (h), neurokinin): 30.93%
